In paper PMC4626104, “Inhibition on Proteasome β1 Subunit Might Contribute to the Anti-Cancer Effects of Fangchinoline in Human Prostate Cancer Cells” (PLoS ONE, 2015):
Like-named read-outs stand apart in the source and are kept apart here.

Key:
[1] = tested on: T1, cellular proteasome of LnCap cells; assay: Cellular proteasome activities of LnCap cells; assay type: cell-based, human; settings: 24 h
T1 construct: endogenous in cells; host or cells: LnCap cells, whole cell extract
Procedure: Cells were treated with either solvent control (0.1% DMSO), fangchinoline at different concentrations, or 1 μM carfilzomib (positive control) for 24 h at 37 °C. The enzymatic activities of cellular proteasome in cell lysate were measured as reported in our previous paper. Briefly, cells were harvested, washed with PBS and then lysed in proteasome activity assay buffer for 30 min at 4°C. The homogenate was then centrifuged at 12000 × g for 30 min at 4°C. The supernatant was collected as whole cell extract and the protein content in the supernatant was measured with the Bradford reagent. Catalytic activities of cellular proteasome were assayed by adding whole cell extract (containing 30 μg protein) to 100 μL of proteasome activity assay buffer containing 50 μM fluorogenic peptide substrates such as Z-LLE-AMC for detecting C-L activity, Z-ARR-AMC for detecting T-L activity or Suc-LLVY-AMC for detecting CT-L activity, respectively. The release of fluorogenic AMC from the peptide substrates was then measured as described above.

LnCap cells = assay: MTT assay of cell proliferation, LnCap cells; assay type: cell-based; settings: Homo sapiens, read-out: IC50 inhibiting cell proliferation
Procedure: The inhibitive effects of fangchinoline on proliferation of PC-3 cells or LnCap cells was observed by checking cell viability of cells using MTT assay as described before. Briefly, cells were seeded in 96-well plates at a density of 5×10^4 cells/mL for PC-3 cell and 4×10^4 cells/mL for LnCap cells. After overnight culture, the media were changed into fresh media containing various concentrations of fangchinoline or 0.1% DMSO (solvent control) for 24, 48 h or 72 h. Cell viability was evaluated by measuring the mitochondrial-dependent conversion of the yellow tetrazolium salt MTT to purple formazan crystals by metabolic active cells. The optical density (proportional to the number of live cells) was assessed with a Microplate Reader Bio-Rad 550 at 570 nm. IC50 value (half-maximal inhibitory concentration) was calculated by the Logit method.

[2] = target: T2, purified human erythrocyte 20S proteasome (Homo sapiens, UniProt P28072); assay: C-L activity of purified human 20S proteasome; assay type: biochemical
T2 construct: purchased Enzo Life Sciences, Inc; host or cells: human erythrocytes
Procedure: The 20S proteasome assay kit was bought from Enzo Life Sciences, Inc. (Farmingdale, NY 11735, USA). The Km, Vmax values of the purified human erythrocyte 20S proteasome for fluorigenic peptide substrate Z-LLE-AMC are measured according to the instructions provided by the manufacturer. Inactivation of purified human erythrocyte 20S proteasome by fangchinoline was determined by monitoring the hydrolysis of substrate in the presence of different concentrations of fangcinoline. Assays were performed at 37°C in a reaction buffer (50 μL) containing 50 mM Tris/HCL, pH 7.5, 25 mM KCL, 10 mM NaCL, 1 mM MgCL2, 0.1 μg 20S proteasome and Z-LLE-AMC. Reactions were allowed to proceed for 120 min, and fluorescence data were collected every 1 min, and then plotted as a function of time. The apparent dissociation constant, Ki ^app, was determined by non-linear least-fit of the fractional velocity, vi/v0, as a function of [I], where vi is the steady state residual activity of the enzyme in the presence of inhibitor (I) and v0 is the initial velocity in the absence of inhibitor ( Vi/V0=1/1+[I]/Kiapp ). The dissociation constant, Ki, was calculated from the apparent dissociation constant, Ki ^app, using the following expression, where [S] is the substrate concentration and Km is the substrate binding constant ( Ki=Kiapp/1+[S]/Km ).

[3] = tested on: caspase-3, PARP, LC-3B in PC-3 cells; assay: Western blotting of apoptosis and autophagy markers in PSMB6 knockdown PC-3 cells; assay type: cell-based, human; settings: 40 μM, 24 h
Procedure: Western blotting assay was conducted as described before. Briefly, an aliquot of protein (100 μg) sample was loaded onto a 12% SDS gel, separated electrophoretically, and transferred to a Nitrocellulose membrane (Bio-Rad). After the membrane was incubated with 10 mM TBS with […] and 5% dehydrated skim milk to block nonspecific protein binding, the membrane was incubated with primary antibodies overnight at 4°C. The primary antibodies (all from Cell Signaling Technology) used were rabbit polyclonal antibody against human IκB-α (#4812, 1:400), Bax (#2772, 1:400), proteasome β1 subunit (PSMB6) (#13267, 1:500), β-actin (#4967, 1:400) and mouse monoclonal antibody against human p27 Kip1 (#3688, 1:400) or ubiquitin (#3936, 1:1000). After TBS washes, blots were then incubated with secondary antibody for 2 h at room temperature at a 1:1000 dilution and then visualized using chemiluminescence (Pierce Biotechnology, Rockford, IL, USA). The secondary antibodies used were HRP-linked goat anti-rabbit IgG (#7074) and HRP-linked horse anti-mouse IgG (#7076), both from Cell Signaling Technology.
Validated siRNAs for PSMB6 (Sigma-Aldrich) were transfected into PC-3 cells by using Lipofectamine RNAiMAX (Invitrogen) according to the manufacturer’s protocol. Scrambled negative control siRNAs (Sigma-Aldrich) were used as negative control. […]

For `COc1ccc2cc1Oc1ccc(cc1)C[C@H]1c3cc(c(OC)cc3CCN1C)Oc1c(O)c(OC)cc3c1[C@H](C2)N(C)CC3` [fangchinoline], the “Effect on CT-L activity of cellular proteasome” value [1] was “did not affect”, the “Effect on T-L activity of cellular proteasome” value [1] was “did not affect” and the “Inhibition of C-L activity of cellular proteasome” value [1] was “significantly inhibit”. For the same compound, the IC50 (LnCap cells; 24 h) was 36.2 ± 6.33 µM, the IC50 (LnCap cells; 48 h) was 11.6 ± 0.22 µM and the IC50 (LnCap cells; 72 h) was 12.7 ± 0.59 µM. The “Hydrolysis of substrate Z-LLE-AMC by 20S proteasome” value ([2]; 500 μM fangchinoline, 75 μM Z-LLE-AMC) was “partly inhibited”, the Ki ([2]; substrate Z-LLE-AMC, 37°C) was 357 ± 30.6 µM and the “Effect of knockdown of proteasome β1 subunit on markers of apoptosis (caspase-3, PARP) and autophagy (LC-3B)” value [3] was “ameliorated fangchinoline-induced apoptosis and autophagy”.
